Measured values as given in US9828366B2, “Bicyclic derivatives and pharmaceutical composition including the same” (HANMI PHARM. CO., LTD., priority 2014, dated 2017).

Assays:
[1] = molecular target: T1, hSGLT1 (Homo sapiens, UniProt P13866); experiment: [14C]-AMG uptake assay in HEK293-hSGLT1 cells; type: cell-based; conditions: HEK293-hSGLT1 stable cell line
T1 construct: FLAG; expressed in transfected cells
T1 sequence (P13866 1-664): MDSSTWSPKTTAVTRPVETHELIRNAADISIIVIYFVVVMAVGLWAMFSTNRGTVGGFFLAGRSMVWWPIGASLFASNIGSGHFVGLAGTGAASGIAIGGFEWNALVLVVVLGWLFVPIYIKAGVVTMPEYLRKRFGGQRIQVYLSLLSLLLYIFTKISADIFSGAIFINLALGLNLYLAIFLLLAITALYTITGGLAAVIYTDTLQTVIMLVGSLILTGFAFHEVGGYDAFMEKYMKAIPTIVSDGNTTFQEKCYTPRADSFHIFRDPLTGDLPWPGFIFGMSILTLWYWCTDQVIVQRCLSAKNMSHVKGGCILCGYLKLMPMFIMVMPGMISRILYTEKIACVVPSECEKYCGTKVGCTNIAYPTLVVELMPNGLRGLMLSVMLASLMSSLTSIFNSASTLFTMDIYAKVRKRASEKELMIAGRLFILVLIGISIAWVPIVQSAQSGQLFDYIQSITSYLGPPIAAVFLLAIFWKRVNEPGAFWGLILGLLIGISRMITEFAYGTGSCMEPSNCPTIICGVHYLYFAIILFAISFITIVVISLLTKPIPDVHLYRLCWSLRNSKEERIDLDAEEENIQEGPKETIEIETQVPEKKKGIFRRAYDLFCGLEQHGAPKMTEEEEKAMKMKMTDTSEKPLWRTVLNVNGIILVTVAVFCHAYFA
Description: (§1) For the evaluation of the pharmaceutical efficacies of the compounds as a SGLT inhibitor, a glucose uptake assay was conducted by using stable cell lines, i.e., HEK293-hSGLT1 and HEK293-hSGLT2. The stable cell lines were prepared by transfection of human embryonic kidney 293 (HEK293) cell line with pcDNA3.1(+)-FLAG-hSGLT1 and pcDNA3.1(+)-FLAG-hSGLT2 vectors.
(§2) The cells were seeded in a 96-well poly-D-lysine (PDL) coated plate at a density of 2.5×10^4 cells/well and cultured in a cell culture incubator for one day at 37° C., 5% CO2. Then, the cells were washed once with 1× assay buffer (140 mM NaCl, 5 mM KCl, 2.5 mM CaCl2, 1 mM MgSO4.7H2O, 1 mM KH2PO4, 10 mM HEPES) and pre-incubated in a cell culture incubator for 30 minutes with 1× assay buffer at 37° C., 5% CO2. Each compound obtained in the Examples was 10-fold diluted with 1× assay buffer. The diluted compounds were added to the plate at various concentrations and then cultured in a cell culture incubator for 1 hour at 37° C., 5% CO2.
(§3) Radioactive [^14C]-alpha-methyl-D-glucopyranoside (Cat# NEC659250UC, Perkin Elmer) was diluted with 1× assay buffer at a concentration of 0.2 μCi. The diluted [^14C]-AMG was added to all the wells in plate in the same amount, and the cells were cultured in a cell culture incubator for 2 hours at 37° C., 5% CO2. The cells were washed three times with cold Dulbecco's Phosphate buffer saline (DPBS) and then lysed with 0.2 N NaOH for 10 minutes at room temperature with shaking. After addition of MicroScint 20 fluid, the cells were allowed to shake for 15 minutes at room temperature, and then the activity of [^14C]AMG was quantified on a β-scintillation counter. IC50 of each of the compounds was determined by GraphPad Prism 4.0 software.

[2] = molecular target: T2, hSGLT2 (Homo sapiens, UniProt P31639); experiment: [14C]-AMG uptake assay in HEK293-hSGLT2 cells; type: cell-based; conditions: HEK293-hSGLT2 stable cell line
T2 construct: FLAG; expressed in transfected cells
T2 sequence (P31639 1-672): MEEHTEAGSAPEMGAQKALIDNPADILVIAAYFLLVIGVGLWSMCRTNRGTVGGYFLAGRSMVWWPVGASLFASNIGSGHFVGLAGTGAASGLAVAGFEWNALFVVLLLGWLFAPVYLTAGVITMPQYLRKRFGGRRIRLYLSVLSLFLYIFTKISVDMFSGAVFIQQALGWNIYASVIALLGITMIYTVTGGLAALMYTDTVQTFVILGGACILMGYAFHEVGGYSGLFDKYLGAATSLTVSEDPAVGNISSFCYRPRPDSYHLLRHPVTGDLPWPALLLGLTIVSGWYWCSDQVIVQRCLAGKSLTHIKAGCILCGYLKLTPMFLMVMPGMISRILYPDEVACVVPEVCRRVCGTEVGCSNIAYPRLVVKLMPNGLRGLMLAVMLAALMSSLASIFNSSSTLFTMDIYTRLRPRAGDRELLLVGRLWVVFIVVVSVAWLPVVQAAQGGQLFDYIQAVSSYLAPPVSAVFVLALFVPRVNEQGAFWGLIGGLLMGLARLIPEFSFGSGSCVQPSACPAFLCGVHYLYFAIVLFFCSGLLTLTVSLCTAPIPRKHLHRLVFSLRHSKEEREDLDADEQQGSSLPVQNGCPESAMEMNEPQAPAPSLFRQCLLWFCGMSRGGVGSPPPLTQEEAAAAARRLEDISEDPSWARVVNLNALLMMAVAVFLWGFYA
Description: as §1, §2, §3

[3] = tested on: C57BL/6 male mice; experiment: Urinary glucose excretion test (UGE test); type: in vivo; conditions: 3 mg/kg oral (Examples 13 to 38), 2 g/kg glucose after 30 minutes, urine collected for 24 hours
Description: The pharmaceutical efficacies of the compounds prepared in the Examples were investigated by a urinary glucose excretion test using C57BL/6 male mice (8-week-old, prepared and supplied from Orient Chemical Co. Ltd.).
Two mice were used in each group. The mice were fasted for 16 hours, and the compound of each of the Examples [10 mg/kg of the compound of Examples 1 to 12; and 3 mg/kg of the compound of Examples 13 to 38] was dissolved in a vehicle [a mixed solution of 5% 1-methyl-2-pyrrolidinone, 20% PEG, and 75% 20 mM sodium diphosphate], and orally administered to the mice. After 30 minutes, 2 g/kg of glucose was orally administered to the mice in all the groups. Thereafter, the mice were immediately put into a metabolic cage, and urine was collected for 24 hours. The mice were freely fed an hour after the administration of glucose.
The results obtained from the test, that is, the results obtained by measuring urinary glucose excretion in the C57BL/6 male mice according to the compounds of the Examples, are listed in Table 5.

| Compound | IC50 [1] [nM] | IC50 [2] [nM] | UGE [3] [mg/20 g/24 hr] |
| --- | --- | --- | --- |
| OC[C@H]1O[C@@H](c2cc3c(c(Cc4ccc(-c5ccc(F)cc5)s4)c2)CCC3)[C@H](O)[C@@H](O)[C@@H]1O [Example 36, (2S,3R,4R,5S,6R)-2-(7-((5-(4-fluorophenyl)thiophen-2-yl)methyl)-2,3-dihydro-1H-inden-5-yl)-6-(hydroxymethyl)tetrahydro-2H-pyran-3,4,5-triol] | 84.9 | 9 |  |
| OC[C@H]1O[C@@H](c2cc3c(c(Cc4ccc(OC(F)(F)F)cc4)c2)CCC3)[C@H](O)[C@@H](O)[C@@H]1O [Example 22, (2R,3S,4R,5R,6S)-2-(hydroxymethyl)-6-(7-(4-(trifluoromethoxy)benzyl)-2,3-dihydro-1H-inden-5-yl)tetrahydro-2H-pyran-3,4,5-triol] | 511 | 9.2 | 9.6 |
| CC(C)(C)c1ccc(Cc2cc([C@@H]3O[C@H](CO)[C@@H](O)[C@H](O)[C@H]3O)cc3c2CCC3)cc1 [Example 31, (2S,3R,4R,5S,6R)-2-(7-(4-(tert-butyl)benzyl)-2,3-dihydro-1H-inden-5-yl)-6-(hydroxymethyl)tetrahydro-2H-pyran-3,4,5-triol] | 178 | 5.8 |  |
| OC[C@H]1O[C@@H](c2cc3c(c(Cc4cc5ccccc5s4)c2)CCC3)[C@H](O)[C@@H](O)[C@@H]1O [Example 37, (2S,3R,4R,5S,6R)-2-(7-(benzo[b]thiophen-2-ylmethyl)-2,3-dihydro-1H-inden-5-yl)-6-(hydroxymethyl)tetrahydro-2H-pyran-3,4,5-triol] | 19.8 | 9 | 14.5 |
| OC[C@H]1O[C@@H](c2cc3c(c(Cc4ccc5c(c4)OCCO5)c2)CCC3)[C@H](O)[C@@H](O)[C@@H]1O [Example 30, (2S,3R,4R,5S,6R)-2-(7-((2,3-dihydrobenzo[1,4]dioxin-6-yl)methyl)-2,3-dihydro-1H-inden-5-yl)-6-(hydroxymethyl)tetrahydro-2H-pyran-3,4,5-triol] | 55.2 | 3.5 | 7.2 |
| OC[C@H]1O[C@@H](c2cc3c(c(Cc4ccc(C(F)(F)F)cc4)c2)CCC3)[C@H](O)[C@@H](O)[C@@H]1O [Example 24, (2R,3S,4R,5R,6S)-2-(hydroxymethyl)-6-(7-(4-(trifluoromethyl)benzyl)-2,3-dihydro-1H-inden-5-yl)tetrahydro-2H-pyran-3,4,5-triol] | 267 | 6.8 |  |
| OC[C@H]1O[C@@H](c2cc3c(c(Cc4ccc(OCC(F)(F)F)cc4)c2)CCC3)[C@H](O)[C@@H](O)[C@@H]1O [Example 34, (2R,3S,4R,5R,6S)-2-(hydroxymethyl)-6-(7-(4-(2,2,2-trifluoroethoxy)benzyl)-2,3-dihydro-1H-inden-5-yl)tetrahydro-2H-pyran-3,4,5-triol] | 553 | 13.5 |  |
| OC[C@H]1O[C@@H](c2cc3c(c(Cc4ccc(C5CC5)cc4)c2)CCC3)[C@H](O)[C@@H](O)[C@@H]1O [Example 38, (2S,3R,4R,5S,6R)-2-(7-(4-cyclopropylbenzyl)-2,3-dihydro-1H-inden-5-yl)-6-(hydroxymethyl)tetrahydro-2H-pyran-3,4,5-triol] | 24.9 | 5.8 | 14.8 |

Now from value to compound, other results behind:

| IC50 [1] [nM] | IC50 [2] [nM] | Compound | UGE [3] [mg/20 g/24 hr] |
| --- | --- | --- | --- |
| 54.6 | 5.6 | CCc1ccc(Cc2cc([C@@H]3O[C@H](CO)[C@@H](O)[C@H](O)[C@H]3O)cc3c2CCC3)cc1 [Example 16, (2S,3R,4R,5S,6R)-2-(7-(4-ethylbenzyl)-2,3-dihydro-1H-inden-5-yl)-6-(hydroxymethyl)tetrahydro-2H-pyran-3,4,5-triol] | 16.4 |
| 7.7 | 9.6 | Cc1ccc(Cc2cc([C@@H]3O[C@H](CO)[C@@H](O)[C@H](O)[C@H]3O)cc3c2CCC3)cc1 [Example 15, (2R,3S,4R,5R,6S)-2-(hydroxymethyl)-6-(7-(4-methylbenzyl)-2,3-dihydro-1H-inden-5-yl)tetrahydro-2H-pyran-3,4,5-triol] | 8.1 |
| 35.2 | 3.5 | OC[C@H]1O[C@@H](c2cc3c(c(Cc4ccc5c(c4)OCO5)c2)CCC3)[C@H](O)[C@@H](O)[C@@H]1O [Example 29, (2S,3R,4R,5S,6R)-2-(7-(benzo[d][1,3]dioxol-5-ylmethyl)-2,3-dihydro-1H-inden-5-yl)-6-(hydroxymethyl)tetrahydro-2H-pyran-3,4,5-triol] |  |
| 210 | 28.8 | OC[C@H]1O[C@@H](c2cc3c(c(Cc4ccc(Cl)cc4)c2)CCC3)[C@H](O)[C@@H](O)[C@@H]1O [Example 40, (2S,3R,4R,5S,6R)-2-(7-(4-chlorobenzyl)-2,3-dihydro-1H-inden-5-yl)-6-(hydroxymethyl)tetrahydro-2H-pyran-3,4,5-triol] |  |
| 63.2 | 4.5 | Cc1ccc(Cc2cc([C@@H]3O[C@H](CO)[C@@H](O)[C@H](O)[C@H]3O)cc3c2CCC3)cc1C [Example 32, (2S,3R,4R,5S,6R)-2-(7-(3,4-dimethylbenzyl)-2,3-dihydro-1H-inden-5-yl)-6-(hydroxymethyl)tetrahydro-2H-pyran-3,4,5-triol] |  |
| 31.9 | 4 | COc1ccc(Cc2cc([C@@H]3O[C@H](CO)[C@@H](O)[C@H](O)[C@H]3O)cc3c2CCC3)cc1 [Example 14, (2R,3S,4R,5R,6S)-2-(hydroxymethyl)-6-(7-(4-methoxybenzyl)-2,3-dihydro-1H-inden-5-yl)tetrahydro-2H-pyran-3,4,5-triol] |  |
